Like-named read-outs stand apart in the source and are kept apart here.
Assays:
[1] = NMR secondary structure; conditions: in the presence of DPC micelles
[2] = target: PKA-C (Mus musculus, UniProt P05132); test: PKA-C catalyzed steady-state phosphorylation assay; type: biochemical; conditions: for catalytic efficiency kcat/Km: spectrophotometric, 340 nm, 299 K, 50 mM MOPS pH 7.0, 20 mM DTT, 10 mM MgCl2, 5.0 mM ATP, 1.0 mM PEP, 0.2 mM NADH, triplicate
[3] = cited from earlier work

Substance	secondary structure (CSI and SSP scores) [1]	catalytic efficiency kcat/Km ([2]; absence of membranes)	R-state population ([3]; free in solution) [%]	phosphorylation efficiency (in words) ([2]; PLN in DPC micelles, most helical construct studied)	catalytic efficiency kcat/Km ([2]; full-length PLN in DPC micelles)	R-state population ([3]; in DPC micelles)
PLN1–20: peptide corresponding to the cytoplasmic domain Ia of phospholamban (MEKVQYLTRSAIRRASTIEM; UniProt P26678 1-20, looked up, fragment)	the peptide forms a stable α-helix	~ 0.6 µM^−1s^−1	100			
PLN: synthetic and recombinant versions of full-length PLN with no lipidation; membrane protein that inhibits SERCA				the phosphorylation efficiency is drastically lower	~ 0.06 µM^−1s^−1	~ 4%

From publication PMC3513267 (Journal of molecular biology, 2011)
